The target in the assay is BTK (Homo sapiens (Human), UniProt Q06187). Nature of the assay: Btk kinase assay (HTRF). The assay is classed as biochemical. How it is done:
Btk Kinase Assay and Other Kinases Assay Btk kinase activity was determined using a homogenous time resolved fluorescence (HTRF) methodology. Measurements were performed in a reaction volume of 15 μL using 384-well assay plates. Kinase enzyme, inhibitor, ATP and 1 μM peptide substrate were incubated in a reaction buffer compose of Hepes 50 mM (pH7.0), NaN3 0.02%, BSA 0.01%, Orthocanadate 0.1 mM. […] For each compound, enzyme activity as measured at various concentrations of compound, Negative control reactions were performed in the absence of inhibitor in two replicates and eight no enzyme controls were used to determine baseline fluorescence levels.

[1] abbreviates: [ATP]=80 μM, BTK=3.4 nM, read-out: BTK Inhibition.

Like-named read-outs stand apart in the source and are kept apart here.

Chain of BTK (Q06187 whole entry, species assumed): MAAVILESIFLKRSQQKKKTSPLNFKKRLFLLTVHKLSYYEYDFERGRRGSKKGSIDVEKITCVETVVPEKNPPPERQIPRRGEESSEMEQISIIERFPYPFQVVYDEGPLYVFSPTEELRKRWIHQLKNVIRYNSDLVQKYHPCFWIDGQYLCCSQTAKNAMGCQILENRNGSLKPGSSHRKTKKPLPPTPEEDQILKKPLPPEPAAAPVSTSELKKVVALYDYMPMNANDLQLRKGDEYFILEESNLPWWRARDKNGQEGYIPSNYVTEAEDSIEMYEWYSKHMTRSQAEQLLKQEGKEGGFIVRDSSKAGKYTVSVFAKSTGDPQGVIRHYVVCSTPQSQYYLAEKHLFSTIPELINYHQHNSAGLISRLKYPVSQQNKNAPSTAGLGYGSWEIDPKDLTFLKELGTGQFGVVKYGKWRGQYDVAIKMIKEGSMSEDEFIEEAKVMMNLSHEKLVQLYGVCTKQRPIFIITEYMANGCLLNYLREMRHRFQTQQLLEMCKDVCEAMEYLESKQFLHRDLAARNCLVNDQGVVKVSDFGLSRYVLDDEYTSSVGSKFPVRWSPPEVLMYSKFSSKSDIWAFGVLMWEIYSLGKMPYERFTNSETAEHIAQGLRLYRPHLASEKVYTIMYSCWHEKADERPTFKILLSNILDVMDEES

As to `C=CC(=O)N1CCC[C@@H](n2nc(-c3ccc(OC4CCCCC4)cc3)c3cnccc32)C1` [Compound 29, (R)-1-(3-(3-(4-(cyclohexyloxy)phenyl)-1H-pyrazolo[4,3-c]pyridin-1-yl)piperidin-1-yl)prop-2-en-1-one], the IC50 under setting [1] is 10 to 100 nM.

Regarding `C=CC(=O)N1CCC(Cn2nc(-c3ccc(Oc4ccccc4)cc3)c3cnccc32)C1` (stereo not drawn) [Compound 21, 1-(3-((3-(4-phenoxyphenyl)-1H-pyrazolo[4,3-c]pyridin-1-yl)methyl)pyrrolidin-1-yl)prop-2-en-1-one], the IC50 under setting [1] lay within 10 to 100 nM.

Consider `COc1cccc(Oc2ccc(-c3nn(C4CCC(C(=O)O)CC4)c4c(OC)cncc34)cc2)c1F` (stereo not drawn) [Compound 122, 4-(3-(4-(2-fluoro-3-methoxyphenoxy)phenyl)-7-methoxy-1H-pyrazolo[4,3-c]pyridin-1-yl)cyclohexanecarboxylic acid], for which the IC50 under setting [1] is under 10 nM.

For `C=CC(=O)N1CCC[C@@H](n2nc(-c3ccc(C(=O)NCc4cccc(OC)c4)cc3)c3cnccc32)C1` [Compound 104, (R)-4-(1-(1-acryloylpiperidin-3-yl)-1H-pyrazolo[4,3-c]pyridin-3-yl)-N-(3-methoxybenzyl)benzamide], the IC50 under setting [1] lay in the range of 100 to 1000 nM.

For `C=CC(=O)N1CCC[C@@H](n2nc(-c3ccc(Oc4cccc(C)c4C)cc3)c3cnccc32)C1` [Compound 24, (R)-1-(3-(3-(4-(2,3-dimethylphenoxy)phenyl)-1H-pyrazolo[4,3-c]pyridin-1-yl)piperidin-1-yl)prop-2-en-1-one], the IC50 under setting [1] is under 10 nM.

Take `C=CC(=O)N1CCC[C@H](n2nc(-c3ccc(C(=C)c4ccccc4)cc3)c3cnccc32)C1` [Compound 95, (S)-1-(3-(3-(4-(1-phenylvinyl)phenyl)-1H-pyrazolo [4,3-c]pyridin-1-yl)piperidin-1-yl)prop-2-en-1-one]: under setting [1], the IC50 lay in the range of 10 to 100 nM.

Turning to `C=CC(=O)Nc1cccc(-n2nc(-c3ccc(Oc4ccccc4)cc3)c3cnccc32)c1` [Compound 22, N-(3-(3-(4-phenoxyphenyl)-1H-pyrazolo[4,3-c]pyridin-1-yl)phenyl)acrylamide], under setting [1], the IC50 lay in the range of 10 to 100 nM.

Regarding `C=CC(=O)N1CC[C@@H](n2nc(-c3ccc(Oc4cccc(OC)c4F)cc3)c3cncc(C#N)c32)C1` [Compound 28, (R)-1-(1-acryloylpyrrolidin-3-yl)-3-(4-(2-fluoro-3-methoxyphenoxy)phenyl)-1H-pyrazolo[4,3-c]pyridine-7-carbonitrile], the IC50 under setting [1] was under 10 nM.

For `O=C(O)C1CCC(n2nc(-c3ccc(-c4ccccc4)cc3)c3cnccc32)CC1` (stereo not drawn) [Compound 124, 4-(3-([1,1′-biphenyl]-4-yl)-1H-pyrazolo[4,3-c]pyridin-1-yl)cyclohexanecarboxylic acid], the IC50 under setting [1] was over 10000 nM.

With `C=CC(=O)N1CC[C@@H](n2nc(-c3ccc(Oc4cccc(Cl)c4C)cc3)c3cnccc32)C1` [Compound 60, (R)-1-(3-(3-(4-(3-chloro-2-methylphenoxy)phenyl)-1H-pyrazolo[4,3-c]pyridin-1-yl)pyrrolidin-1-yl)prop-2-en-1-one], the IC50 under setting [1] lay in the range of 10 to 100 nM.

As to `COc1cccc(Oc2ccc(-c3nn([C@@H]4CCCN(C(=O)/C(C#N)=C/C(C)(C)C)C4)c4c(OC)cncc34)cc2)c1F` [Compound 90, (R,E)-2-(3-(3-(4-(2-fluoro-3-methoxyphenoxy)phenyl)-7-methoxy-1H-pyrazolo[4,3-c]pyridin-1-yl)piperidine-1-carbonyl)-4,4-dimethylpent-2-enenitrile], the IC50 under setting [1] fell in the range of 10 to 100 nM.

Turning to `C=CC(=O)N1CCC[C@@H](n2nc(-c3ccc(COc4ccccc4)cc3)c3ccccc32)C1` [Compound 102, (R)-1-(3-(3-(4-(phenoxymethyl)phenyl)-1H-indazol-1-yl)piperidin-1-yl)prop-2-en-1-one], the IC50 is 10 to 100 nM.

In the case of `C=CC(=O)N1CC[C@@H](n2nc(-c3ccc(C(=O)NCc4cccc(OC)c4)cc3)c3cnccc32)C1` [Compound 103, (R)-4-(1-(1-acryloylpyrrolidin-3-yl)-1H-pyrazolo[4,3-c]pyridin-3-yl)-N-(3-methoxybenzyl)benzamide], the IC50 under setting [1] lay in the range of 100 to 1000 nM.

With `C=CC(=O)N1CCC[C@@H](n2nc(Nc3ccc(N4CCN(C)CC4)cc3)c3cnccc32)C1` [Compound 114, (R)-1-(3-(3-((4-(4-methylpiperazin-1-yl)phenyl)amino)-1H-pyrazolo[4,3-c]pyridin-1-yl)piperidin-1-yl)prop-2-en-1-one], under setting [1], the IC50 fell in the range of 1000 to 10000 nM.

Regarding `C=CC(=O)N1CCC[C@@H](n2nc(-c3ccc(Oc4cccc(OC)c4F)cc3)c3cncc(OCCN(C)C)c32)C1` [Compound 93, (R)-1-(3-(7-(2-(dimethylamino)ethoxy)-3-(4-(2-fluoro-3-methoxyphenoxy)phenyl)-1H-pyrazolo[4,3-c]pyridin-1-yl)piperidin-1-yl)prop-2-en-1-one], the IC50 under setting [1] was under 10 nM.

With `C=CC(=O)N1CCC[C@H](n2nc(-c3ccc(Oc4cccc(Cl)c4Cl)cc3)c3cnccc32)C1` [Compound 44, (S)-1-(3-(3-(4-(2,3-dichlorophenoxy)phenyl)-1H-pyrazolo[4,3-c]pyridin-1-yl)piperidin-1-yl)prop-2-en-1-one], under setting [1], the IC50 is under 10 nM.

Consider `C=CC(=O)N1CC[C@@H](n2nc(-c3ccc(Oc4cccc(OC)c4C)cc3)c3cnccc32)C1` [Compound 59, (R)-1-(3-(3-(4-(3-methoxy-2-methylphenoxy)phenyl)-1H-pyrazolo[4,3-c]pyridin-1-yl)pyrrolidin-1-yl)prop-2-en-1-one], for which, under setting [1], the IC50 lay in the range of 10 to 100 nM.

In the case of `C=CC(=O)N1CC[C@@H](n2nc(-c3ccc(Oc4cccc(C)c4F)cc3)c3cnccc32)C1` [Compound 47, (R)-1-(3-(3-(4-(2-fluoro-3-methylphenoxy)phenyl)-1H-pyrazolo[4,3-c]pyridin-1-yl)pyrrolidin-1-yl)prop-2-en-1-one], the IC50 under setting [1] was under 10 nM.

Take `C=CC(=O)N1CCC[C@@H](n2nc(-c3ccc(Oc4cccc(Cl)c4)cc3)c3cnccc32)C1` [Compound 9, (R)-1-(3-(3-(4-(3-chlorophenoxy)phenyl)-1H-pyrazolo[4,3-c]pyridin-1-yl)piperidin-1-yl)prop-2-en-1-one]: the IC50 under setting [1] fell in the range of 10 to 100 nM.

For the compound `COc1cccc(Oc2ccc(-c3nn([C@@H]4CCCN(C(=O)C(=O)O)C4)c4c(OC)cncc34)cc2)c1F` [Compound 119, (R)-2-(3-(3-(4-(2-fluoro-3-methoxyphenoxy)phenyl)-7-methoxy-1H-pyrazolo[4,3-c]pyridin-1-yl)piperidin-1-yl)-2-oxoacetic acid], under setting [1], the IC50 fell in the range of 10 to 100 nM.

In the case of `C=CC(=O)N1CC[C@@H](n2nc(-c3ccc(N4CCN(C)CC4)cc3)c3cnccc32)C1` [Compound 112, (R)-1-(3-(3-(4-(4-methylpiperazin-1-yl)phenyl)-1H-pyrazolo [4,3-c]pyridin-1-yl)pyrrolidin-1-yl)prop-2-en-1-one], the IC50 under setting [1] is 100 to 1000 nM.

Regarding `C=CC(=O)N1CC[C@@H](n2nc(-c3ccc(-c4cccc(C)c4)cc3)c3cnccc32)C1` [Compound 107, (R)-1-(3-(3-(3′-methyl-[1,1′-biphenyl]-4-yl)-1H-pyrazolo[4,3-c]pyridin-1-yl)pyrrolidin-1-yl)prop-2-en-1-one], the IC50 under setting [1] is 10 to 100 nM.

Take `C=CC(=O)N1CC[C@@H](n2nc(-c3ccc(Oc4cccc5ccccc45)cc3)c3cnccc32)C1` [Compound 7, (R)-1-(3-(3-(4-(naphthalen-1-yloxy)phenyl)-1H-pyrazolo[4,3-c]pyridin-1-yl)pyrrolidin-1-yl)prop-2-en-1-one]: the IC50 under setting [1] lay in the range of 10 to 100 nM.

Take `O=C(Nc1ccc(-c2nn(C3CCC(C(=O)O)CC3)c3ccncc23)cc1)c1ccccc1` (stereo not drawn) [Compound 123, 4-(3-(4-benzamidophenyl)-1H-pyrazolo[4,3-c]pyridin-1-yl)cyclohexanecarboxylic acid]: under setting [1], the IC50 was over 10000 nM.

With `COc1cccc(Oc2ccc(-c3nn([C@@H]4CCCN(C(=O)C5CC6(C5)CN(S(=O)(=O)c5ccc(C)cc5)C6)C4)c4c(OC)cncc34)cc2)c1F` [Compound 74, (R)-(3-(3-(4-(2-fluoro-3-methoxyphenoxy)phenyl)-7-methoxy-1H-pyrazolo [4,3-c]pyridin-1-yl)piperidin-1-yl)(2-tosyl-2-azaspiro[3.3]heptan-6-yl)methanone], the IC50 under setting [1] lay within 100 to 1000 nM.

On to `C=CC(=O)N1CCC[C@H](n2nc(-c3ccc(Oc4ccccc4)c(Cl)c3)c3cnccc32)C1` [Compound 35, (S)-1-(3-(3-(3-chloro-4-phenoxyphenyl)-1H-pyrazolo[4,3-c]pyridin-1-yl)piperidin-1-yl)prop-2-en-1-one], for which the IC50 under setting [1] was in the range of 10 to 100 nM.

For `C=CC(=O)N1CCC[C@@H](n2nc(-c3ccc(Oc4cccc(OC)c4F)cc3)c3cncc(C(F)F)c32)C1` [Compound 72, (R)-1-(3-(7-(difluoromethyl)-3-(4-(2-fluoro-3-methoxyphenoxy)phenyl)-1H-pyrazolo[4,3-c]pyridin-1-yl)piperidin-1-yl)prop-2-en-1-one], under setting [1], the IC50 was in the range of 10 to 100 nM.

`C=CC(=O)N1CCC[C@@H](n2nc(-c3ccc(Oc4cccc(OC)c4F)cc3)c3cncc(OC(C)C)c32)C1` [Compound 96, (R)-1-(3-(3-(4-(2-fluoro-3-methoxyphenoxy)phenyl)-7-isopropoxy-1H-pyrazolo[4,3-c]pyridin-1-yl)piperidin-1-yl)prop-2-en-1-one]: the IC50 under setting [1] was in the range of 10 to 100 nM.

On to `C=CC(=O)N1CC(n2nc(-c3ccc(Oc4ccccc4)cc3)c3cnccc32)C1` [Compound 52, 1-(3-(3-(4-phenoxyphenyl)-1H-pyrazolo[4,3-c]pyridin-1-yl)azetidin-1-yl)prop-2-en-1-one], for which, under setting [1], the IC50 lay in the range of 10 to 100 nM.

Take `C=CC(=O)N1CCC[C@@H](n2nc(-c3ccc(Oc4cccc(OC)c4OCCC)cc3)c3cncc(OCCC)c32)C1` [Compound 88, (R)-1-(3-(3-(4-(3-methoxy-2-propoxyphenoxy)phenyl)-7-propoxy-1H-pyrazolo[4,3-c]pyridin-1-yl)piperidin-1-yl)prop-2-en-1-one]: the IC50 under setting [1] lay within 10 to 100 nM.

Source of the values: US10662187B2, “Bruton's tyrosine kinase inhibitors” (Zibo Biopolar Changsheng Pharmaceutical Co. Ltd., priority 2016, dated 2020).
